Measurements as given in patent US11879137B2, “Treatment of type 1 diabetes and autoimmune diseases or disorders” (THE CHILDREN'S MEDICAL CENTER CORPORATION, priority 2017, dated 2024).
Read-outs that look alike come from different tables or passages of the source.

Experiments:
[1] = test system: peripheral CD34+ cells; conditions: after mobilization
Description: Data are expressed as mean±standard error of the mean (SEM). Data are representative of at least two independent experiments. *P<0.05; **P<0.01; ***P<0.001. #P<0.05 vs. all
The effect of overcoming PD-L1 deficiency in human HSPCs was tested by using the same agents described herein above (e.g., tested in NOD mice). […] To study the ex vivo immunoregulatory functions of pCD34+, CD34-depleted PBMCs were co-cultured with unmodulated CD34+ or pCD34+ in the presence of insulin-associated autoantigen-2 (I-A2), and the number of IFN-γ-producing cells was quantified in an ELISPOT assay. […] Finally, the effect of plerixafor-mediated mobilization, used in clinic (5, 9), was analyzed on PD-L1 expression in CD34+ cells obtained from 5 T1D patients and 8 healthy controls (Table 10).

[2] = test system: NEU1, MTOR, MYC, IGF1R, VEGFA, RB1 in MDA-MB-231 cells; assay: mRNA of validated miRNA target genes (transfection control) in MDA-MB-231 cells; type: cell-based, human; conditions: VEGFA or RB1 as named for each agent, 48 h after transfection
Description: (§1) MDA-MB-231 breast cancer cells were cultured in DMEM high glucose medium (Gibco, Thermo Fisher Scientific; Waltham, MA USA) supplemented with 10% heat-inactivated fetal calf serum (Gibco, Thermo Fisher Scientific), 100 units/ml penicillin, 100 μg/ml streptomycin, and 2 mM L-glutamine. 2×10^5 cells were seeded in each well of a 6-well plate and transfected with 10 pmol of the miRNA mimic or miRNA mimic negative control, or 100 pmol of the anti-miR or anti-miR negative control (all from Exiqon, Qiagen) using the Lipofectamine RNAiMAX transfection reagent (Invitrogen, Thermo Fisher Scientific) in a final culture medium volume of 2 ml, following manufacturer's instructions. […] Forty-eight hours after transfection, cells were collected from each well for RNA extraction, cell lysate preparation and FACS analysis. RNA was extracted using Direct-zol RNA miniprep plus (Zymo research, Irvine, CA, USA) and RNA quality was checked and then retro-transcribed using RETROscript® Kit (Fisher Scientific) following manufacturer's instructions. Cell lysates were obtained in RIPA buffer (50 mmol/1 Tris-HCl, pH 8.0, 1% Triton-x, 0.5% sodium deoxycholate, 0.1% SDS, 150 mmol/1 sodium chloride) with protease inhibitor cocktail (Roche).
qRT-PCR for PD-L1 analysis was performed on retro-transcribed cDNA using SYBR® Green dye (Life Technologies, Thermo Fisher Scientific). Amplification was performed on a QuantStudio S6 Real Time PCR system (Thermo Fisher Scientific). To confirm a successful transfection, the mRNA level of genes known to be controlled by the targeted miRNAs were evaluated by SYBR® Green dye (Life Technologies, Thermo Fisher Scientific) according to the manufacturer's instructions. Normalized expression values were determined using the ΔΔCt method in treated as compared to negative treated samples, using GAPDH mRNA as endogenous reference. The miRNA-targeted genes tested, along with forward and reverse primer sequences used for their amplification, are listed in Table 13.
To determine if targeting the miRNA network decreases PD-L1 expression in human cancer setting, PD-L1-expressing MDA-MB-231 human breast cancer cells were transfected with a set of miRNA mimics or anti-miRs to either increase or decrease the function of a set of miRNAs not previously known to affect PD-L1 (miR-125b, miR-99a, miR-744, mir-599, miR-511, miR-206, miR-26b). The effect of treatment with miRNA mimics and anti-miRs on the percentage of PD-L1-expressing cells, as well as on PD-L1 mRNA and protein levels, was investigated. miRNA mimic/anti-miR treated-cells were compared to corresponding mimic/anti-miR negative control-treated cells by flow cytometric analysis, Real Time PCR and western blot to assess percentage of PD-L1-expressing cells, PD-L1 mRNA, and PD-L1 protein levels, respectively. A successful miRNA mimic/anti-miR transfection was confirmed by the detection of changed mRNA levels of the validated miRNA targets NEU1 (for miR-125b mimic), MTOR (for miR-99a mimic), MYC (for miR-744 mimic and miR-599 anti-miR), IGF1R (for miR-511 mimic), VEGFA (for miR-206 anti-miR) and RB1 (for miR-26b anti-miR) in treated cells (FIG. 22A). […] Lysates of miR-511 mimic and miR-206 anti-miR treated cells were not available for western blot analysis.

[3] = test system: PD-L1 in MDA-MB-231 cells; assay: PD-L1 protein by western blot in transfected MDA-MB-231 cells; type: cell-based, human; conditions: vs corresponding negative control; 48 h
Description: as §1, with “Cell lysates were obtained in RIPA buffer (50 mmol/1 Tris-HCl, pH 8.0, 1% Triton-x, 0.5% sodium deoxycholate, 0.1% SDS, 150 mmol/1 sodium chloride) with protease inhibitor cocktail (Roche).” left out
Protein concentration in MDA-MB-231 cell lysates was measured. […] Finally, for the quantification of western blot, images of PVDF membranes were analyzed by ImageJ software to quantify size and strength of protein bands. […]

Compound	percentage of CD34+PD-L1+ cells ([1]; T1D patients)	percentage and absolute number of CD34+ cells ([1]; 5 T1D patients and 8 healthy controls)	percentage of CD34+PD-L1+ cells ([1]; healthy controls)	mRNA levels of the validated miRNA target [2]	PD-L1 protein levels [3]
c1cc(CN2CCCNCCNCCCNCC2)ccc1CN1CCCNCCNCCCNCC1 [plerixafor]	remained stable	significantly increased	decreased	–	–
miR-599 anti-miR: Anti-miR, GUUUGAUAAACUGACACAAC, SEQ ID NO: 6 (listed as RNA, chemistry not given here)	–	–	–	changed	increase
